Reference: publication PMC9856672, “SGC-CAMKK2-1: A Chemical Probe for CAMKK2” (Cells, 2023)

Key:
WNK2 = molecular target: T1, WNK2 (Homo sapiens, UniProt Q9Y3S1); experiment: KINOMEscan 1 μM, WNK2; type: binding; conditions: 1000 nM; Entrez WNK2; read-out: Percent Control
T1 construct: purchased Eurofins DiscoverX KINOMEscan
Excerpt: (§1) Supplement cells-12-00287-s001.zip/File S2. KinomeScan data for the CAMKK2 probe and negative control.xlsx, sheet "SGC-CAMKK2-1" | column: Percent Control

CSNK1A1 = molecular target: T2, CSNK1A1 (Homo sapiens, UniProt P48729); experiment: KINOMEscan 1 μM, CSNK1A1; type: binding; conditions: 1000 nM; Entrez CSNK1A1; read-out: Percent Control
T2 construct: purchased Eurofins DiscoverX KINOMEscan
Excerpt: as §1

PAK1 = molecular target: T3, PAK1 (Homo sapiens, UniProt Q13153); experiment: KINOMEscan 1 μM, PAK1; type: binding; conditions: 1000 nM; Entrez PAK1; read-out: Percent Control
T3 construct: purchased Eurofins DiscoverX KINOMEscan
Excerpt: as §1

EGFR(L747-T751del,Sins) = experiment: KINOMEscan 1 μM, EGFR(L747-T751del,Sins); type: binding, human; conditions: 1000 nM; Entrez EGFR
Excerpt: as §1

NEK1 = molecular target: T4, NEK1 (Homo sapiens, UniProt Q96PY6); experiment: KINOMEscan 1 μM, NEK1; type: binding; conditions: 1000 nM; Entrez NEK1; read-out: Percent Control
T4 construct: purchased Eurofins DiscoverX KINOMEscan
Excerpt: as §1

CHEK2 = molecular target: T5, CHEK2 (Homo sapiens, UniProt O96017); experiment: KINOMEscan 1 μM, CHEK2; type: binding; conditions: 1000 nM; Entrez CHEK2; read-out: Percent Control
T5 construct: purchased Eurofins DiscoverX KINOMEscan
Excerpt: as §1

DMPK = molecular target: T6, DMPK (Homo sapiens, UniProt Q09013); experiment: KINOMEscan 1 μM, DMPK; type: binding; conditions: 1000 nM; Entrez DMPK; read-out: Percent Control
T6 construct: purchased Eurofins DiscoverX KINOMEscan
Excerpt: as §1

WNK3 = molecular target: T7, WNK3 (Homo sapiens, UniProt Q9BYP7); experiment: KINOMEscan 1 μM, WNK3; type: binding; conditions: 1000 nM; Entrez WNK3; read-out: Percent Control
T7 construct: purchased Eurofins DiscoverX KINOMEscan
Excerpt: as §1

TSSK3 = molecular target: T8, TSSK3 (Homo sapiens, UniProt Q96PN8); experiment: KINOMEscan 1 μM, TSSK3; type: binding; conditions: 1000 nM; Entrez TSSK3; read-out: Percent Control
T8 construct: purchased Eurofins DiscoverX KINOMEscan
Excerpt: as §1

AMPK-alpha2 = molecular target: T9, AMPK-alpha2 (Homo sapiens, UniProt P54646); experiment: KINOMEscan 1 μM, AMPK-alpha2; type: binding; conditions: 1000 nM; Entrez PRKAA2; read-out: Percent Control
T9 construct: purchased Eurofins DiscoverX KINOMEscan
Excerpt: as §1

CDK5 = molecular target: T10, CDK5 (Homo sapiens, UniProt Q00535); experiment: KINOMEscan 1 μM, CDK5; type: binding; conditions: 1000 nM; Entrez CDK5; read-out: Percent Control
T10 construct: purchased Eurofins DiscoverX KINOMEscan
T10 sequence (Q00535 whole entry): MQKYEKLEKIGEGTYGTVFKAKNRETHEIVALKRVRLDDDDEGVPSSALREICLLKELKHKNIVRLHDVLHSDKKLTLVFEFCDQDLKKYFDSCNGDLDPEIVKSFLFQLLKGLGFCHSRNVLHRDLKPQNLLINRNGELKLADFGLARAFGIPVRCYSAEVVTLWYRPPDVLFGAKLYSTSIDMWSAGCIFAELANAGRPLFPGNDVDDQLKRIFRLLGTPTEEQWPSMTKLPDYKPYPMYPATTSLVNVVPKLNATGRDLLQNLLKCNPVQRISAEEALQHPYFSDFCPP
Excerpt: as §1

IGF1R = molecular target: T11, IGF1R (Homo sapiens, UniProt P08069); experiment: KINOMEscan 1 μM, IGF1R; type: binding; conditions: 1000 nM; Entrez IGF1R; read-out: Percent Control
T11 construct: purchased Eurofins DiscoverX KINOMEscan
Excerpt: as §1

MEK6 = molecular target: T12, MEK6 (Homo sapiens, UniProt P52564); experiment: KINOMEscan 1 μM, MEK6; type: binding; conditions: 1000 nM; Entrez MAP2K6; read-out: Percent Control
T12 construct: purchased Eurofins DiscoverX KINOMEscan
Excerpt: as §1

MLK1 = molecular target: T13, MLK1 (Homo sapiens, UniProt P80192); experiment: KINOMEscan 1 μM, MLK1; type: binding; conditions: 1000 nM; Entrez MAP3K9; read-out: Percent Control
T13 construct: purchased Eurofins DiscoverX KINOMEscan
Excerpt: as §1

MYLK2 [1] = molecular target: T14, MYLK2 (Homo sapiens, UniProt Q9H1R3); experiment: KINOMEscan 1 μM, MYLK2; type: binding; conditions: 1000 nM; Entrez MYLK2; read-out: Percent Control
T14 construct: purchased Eurofins DiscoverX KINOMEscan
T14 sequence (Q9H1R3 whole entry): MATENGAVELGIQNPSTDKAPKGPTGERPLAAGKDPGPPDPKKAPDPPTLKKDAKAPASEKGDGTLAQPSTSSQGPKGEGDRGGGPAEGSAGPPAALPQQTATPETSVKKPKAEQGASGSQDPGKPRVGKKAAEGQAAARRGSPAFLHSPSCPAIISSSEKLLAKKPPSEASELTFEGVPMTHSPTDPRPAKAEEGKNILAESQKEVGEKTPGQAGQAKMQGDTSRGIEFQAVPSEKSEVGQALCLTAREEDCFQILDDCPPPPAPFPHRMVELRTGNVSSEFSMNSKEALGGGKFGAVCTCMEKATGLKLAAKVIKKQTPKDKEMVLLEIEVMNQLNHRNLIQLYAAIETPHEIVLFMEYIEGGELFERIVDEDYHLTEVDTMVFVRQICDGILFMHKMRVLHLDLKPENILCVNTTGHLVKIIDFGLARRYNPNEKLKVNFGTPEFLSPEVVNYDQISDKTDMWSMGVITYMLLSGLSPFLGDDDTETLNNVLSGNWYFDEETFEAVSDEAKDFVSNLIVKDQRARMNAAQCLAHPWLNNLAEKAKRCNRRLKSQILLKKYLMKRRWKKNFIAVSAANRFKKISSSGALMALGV
Excerpt: as §1

NIM1 = molecular target: T15, NIM1 (Homo sapiens, UniProt Q8IY84); experiment: KINOMEscan 1 μM, NIM1; type: binding; conditions: 1000 nM; Entrez MGC42105; read-out: Percent Control
T15 construct: purchased Eurofins DiscoverX KINOMEscan
Excerpt: as §1

[2] = molecular target: T16, RSK4(Kin.Dom.1-N-terminal) (Homo sapiens, UniProt Q9UK32); experiment: DiscoverX KINOMEscan binding assay at 1 μM, RSK4(Kin.Dom.1-N-terminal); conditions: RSK4(Kin.Dom.1-N-terminal) (RPS6KA6); Compound Concentration 1000 nM; read-out: Percent Control
T16 construct: RSK4(Kin.Dom.1-N-terminal); purchased Eurofins DiscoverX KINOMEscan
Excerpt: as §1

ULK3 = molecular target: T17, ULK3 (Homo sapiens, UniProt Q6PHR2); experiment: DiscoverX KINOMEscan binding assay at 1 μM, ULK3; conditions: Compound Concentration 1000 nM, read-out: Percent Control
T17 construct: purchased Eurofins DiscoverX KINOMEscan
Excerpt: as §1

ZAK = molecular target: T18, ZAK (Homo sapiens, UniProt Q9NYL2); experiment: DiscoverX KINOMEscan binding assay at 1 μM, ZAK; conditions: Compound Concentration 1000 nM, read-out: Percent Control
T18 construct: purchased Eurofins DiscoverX KINOMEscan
Excerpt: as §1

ALK(C1156Y) = molecular target: T19, ALK(C1156Y) (Homo sapiens, UniProt Q9UM73, C1156Y); experiment: KINOMEscan at 1 μM, ALK(C1156Y); type: binding; conditions: 1000 nM, read-out: Percent Control
T19 construct: purchased Eurofins DiscoverX KINOMEscan
Excerpt: (§2) Supplement cells-12-00287-s001.zip/File S2. KinomeScan data for the CAMKK2 probe and negative control.xlsx, sheet "SGC-CAMKK2-1N" | column: Percent Control

GRK2 = molecular target: T20, GRK2 (Homo sapiens, UniProt P25098); experiment: KINOMEscan at 1 μM, GRK2; type: binding; conditions: 1000 nM, read-out: Percent Control
T20 construct: purchased Eurofins DiscoverX KINOMEscan
T20 sequence (P25098 whole entry): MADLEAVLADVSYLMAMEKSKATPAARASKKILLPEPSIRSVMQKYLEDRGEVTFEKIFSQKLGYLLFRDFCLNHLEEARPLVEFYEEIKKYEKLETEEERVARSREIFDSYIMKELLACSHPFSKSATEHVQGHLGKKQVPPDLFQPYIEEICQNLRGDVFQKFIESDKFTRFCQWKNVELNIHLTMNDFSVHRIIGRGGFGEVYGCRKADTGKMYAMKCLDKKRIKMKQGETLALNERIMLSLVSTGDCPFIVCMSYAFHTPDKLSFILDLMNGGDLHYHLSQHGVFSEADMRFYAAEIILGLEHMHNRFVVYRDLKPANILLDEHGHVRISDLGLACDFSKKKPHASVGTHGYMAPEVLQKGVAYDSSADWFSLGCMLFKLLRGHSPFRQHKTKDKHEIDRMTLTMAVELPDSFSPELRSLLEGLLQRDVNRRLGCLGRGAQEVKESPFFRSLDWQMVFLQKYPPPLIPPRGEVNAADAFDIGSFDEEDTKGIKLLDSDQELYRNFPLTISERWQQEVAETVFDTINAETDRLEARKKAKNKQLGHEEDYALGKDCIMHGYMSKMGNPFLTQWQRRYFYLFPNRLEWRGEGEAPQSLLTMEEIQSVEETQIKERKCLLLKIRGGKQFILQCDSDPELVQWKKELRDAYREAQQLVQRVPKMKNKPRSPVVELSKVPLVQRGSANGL
Excerpt: as §2

SRPK2 = molecular target: T21, SRPK2 (Homo sapiens, UniProt P78362); experiment: KINOMEscan at 1 μM, SRPK2; type: binding; conditions: 1000 nM, read-out: Percent Control
T21 construct: purchased Eurofins DiscoverX KINOMEscan
Excerpt: as §2

MAP4K2 = molecular target: T22, MAP4K2 (Homo sapiens, UniProt Q12851); experiment: KINOMEscan at 1 μM, MAP4K2; type: binding; conditions: 1000 nM, read-out: Percent Control
T22 construct: purchased Eurofins DiscoverX KINOMEscan
Excerpt: as §2

MYLK2 [3] = molecular target: T14, MYLK2; experiment: KINOMEscan at 1 μM, MYLK2; type: binding; conditions: 1000 nM, read-out: Percent Control
Excerpt: as §2

CDK4-cyclinD3 = molecular target: T23, CDK4-cyclinD3 (Homo sapiens, UniProt P11802); experiment: KINOMEscan at 1 μM, CDK4-cyclinD3; type: binding; conditions: 1000 nM, read-out: Percent Control
T23 construct: purchased Eurofins DiscoverX KINOMEscan
T23 sequence (P11802 whole entry): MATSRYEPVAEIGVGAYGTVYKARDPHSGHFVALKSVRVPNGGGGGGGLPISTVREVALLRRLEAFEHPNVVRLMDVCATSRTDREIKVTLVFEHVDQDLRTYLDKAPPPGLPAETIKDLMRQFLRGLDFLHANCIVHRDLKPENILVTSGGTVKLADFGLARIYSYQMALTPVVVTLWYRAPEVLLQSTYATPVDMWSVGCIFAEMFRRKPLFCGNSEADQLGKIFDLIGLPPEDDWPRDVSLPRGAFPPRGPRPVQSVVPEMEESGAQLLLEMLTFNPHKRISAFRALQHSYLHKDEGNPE
T23 sequence (P30281 whole entry partner): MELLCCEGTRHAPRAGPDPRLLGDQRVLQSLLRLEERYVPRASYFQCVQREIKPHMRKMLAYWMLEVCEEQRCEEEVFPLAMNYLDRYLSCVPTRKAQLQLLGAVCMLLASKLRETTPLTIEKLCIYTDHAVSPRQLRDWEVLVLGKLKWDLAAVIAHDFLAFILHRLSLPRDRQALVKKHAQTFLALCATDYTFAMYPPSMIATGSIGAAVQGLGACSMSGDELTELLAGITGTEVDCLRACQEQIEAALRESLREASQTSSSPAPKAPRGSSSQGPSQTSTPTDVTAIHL
Excerpt: as §2

STK35 = molecular target: T24, STK35 (Homo sapiens, UniProt Q8TDR2); experiment: KINOMEscan at 1 μM, STK35; type: binding; conditions: 1000 nM, read-out: Percent Control
T24 construct: purchased Eurofins DiscoverX KINOMEscan
Excerpt: as §2

KIT = molecular target: T25, KIT (Homo sapiens, UniProt P10721); experiment: KINOMEscan at 1 μM, KIT; type: binding; conditions: 1000 nM, read-out: Percent Control
T25 construct: purchased Eurofins DiscoverX KINOMEscan
Excerpt: as §2

RET(V804L) = molecular target: T26, RET(V804L) (Homo sapiens, UniProt P07949, V804L); experiment: KINOMEscan at 1 μM, RET(V804L); type: binding; conditions: 1000 nM, read-out: Percent Control
T26 construct: purchased Eurofins DiscoverX KINOMEscan
T26 sequence (P07949 29-1114 V804L): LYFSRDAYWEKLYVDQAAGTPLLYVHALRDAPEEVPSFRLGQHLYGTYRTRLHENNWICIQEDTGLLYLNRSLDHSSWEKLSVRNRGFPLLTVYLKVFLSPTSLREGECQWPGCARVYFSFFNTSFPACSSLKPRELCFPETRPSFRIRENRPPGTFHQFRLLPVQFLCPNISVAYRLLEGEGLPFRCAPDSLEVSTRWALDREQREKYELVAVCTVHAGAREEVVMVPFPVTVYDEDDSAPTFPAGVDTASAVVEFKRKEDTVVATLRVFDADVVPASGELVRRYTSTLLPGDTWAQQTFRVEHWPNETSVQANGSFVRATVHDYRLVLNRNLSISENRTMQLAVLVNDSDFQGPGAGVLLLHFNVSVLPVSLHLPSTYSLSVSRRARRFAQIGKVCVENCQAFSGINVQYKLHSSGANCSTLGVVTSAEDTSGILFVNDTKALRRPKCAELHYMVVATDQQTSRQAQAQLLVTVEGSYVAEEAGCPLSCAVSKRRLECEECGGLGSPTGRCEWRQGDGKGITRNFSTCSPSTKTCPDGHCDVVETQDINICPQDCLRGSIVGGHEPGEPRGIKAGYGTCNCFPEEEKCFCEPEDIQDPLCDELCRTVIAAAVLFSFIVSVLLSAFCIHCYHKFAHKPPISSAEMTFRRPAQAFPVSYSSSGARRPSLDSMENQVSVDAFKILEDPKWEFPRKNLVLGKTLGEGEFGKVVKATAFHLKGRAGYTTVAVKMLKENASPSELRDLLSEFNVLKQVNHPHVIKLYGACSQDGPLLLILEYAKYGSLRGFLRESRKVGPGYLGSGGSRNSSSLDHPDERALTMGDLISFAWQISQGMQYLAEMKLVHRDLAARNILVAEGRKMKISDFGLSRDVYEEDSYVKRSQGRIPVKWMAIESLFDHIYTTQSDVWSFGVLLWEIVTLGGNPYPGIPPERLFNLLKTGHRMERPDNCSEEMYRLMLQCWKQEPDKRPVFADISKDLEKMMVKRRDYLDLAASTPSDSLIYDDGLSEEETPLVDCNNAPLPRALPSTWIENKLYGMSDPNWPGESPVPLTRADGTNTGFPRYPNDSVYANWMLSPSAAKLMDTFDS
Excerpt: as §2

SNARK = molecular target: T27, SNARK (Homo sapiens, UniProt Q9H093); experiment: KINOMEscan at 1 μM, SNARK; type: binding; conditions: 1000 nM, read-out: Percent Control
T27 construct: purchased Eurofins DiscoverX KINOMEscan
Excerpt: as §2

DRAK1 = molecular target: T28, DRAK1 (Homo sapiens, UniProt Q9UEE5); experiment: KINOMEscan at 1 μM, DRAK1; type: binding; conditions: 1000 nM, read-out: Percent Control
T28 construct: purchased Eurofins DiscoverX KINOMEscan
Excerpt: as §2

PYK2 = molecular target: T29, PYK2 (Homo sapiens, UniProt Q14289); experiment: KINOMEscan at 1 μM, PYK2; type: binding; conditions: 1000 nM, read-out: Percent Control
T29 construct: purchased Eurofins DiscoverX KINOMEscan
T29 sequence (Q14289 whole entry): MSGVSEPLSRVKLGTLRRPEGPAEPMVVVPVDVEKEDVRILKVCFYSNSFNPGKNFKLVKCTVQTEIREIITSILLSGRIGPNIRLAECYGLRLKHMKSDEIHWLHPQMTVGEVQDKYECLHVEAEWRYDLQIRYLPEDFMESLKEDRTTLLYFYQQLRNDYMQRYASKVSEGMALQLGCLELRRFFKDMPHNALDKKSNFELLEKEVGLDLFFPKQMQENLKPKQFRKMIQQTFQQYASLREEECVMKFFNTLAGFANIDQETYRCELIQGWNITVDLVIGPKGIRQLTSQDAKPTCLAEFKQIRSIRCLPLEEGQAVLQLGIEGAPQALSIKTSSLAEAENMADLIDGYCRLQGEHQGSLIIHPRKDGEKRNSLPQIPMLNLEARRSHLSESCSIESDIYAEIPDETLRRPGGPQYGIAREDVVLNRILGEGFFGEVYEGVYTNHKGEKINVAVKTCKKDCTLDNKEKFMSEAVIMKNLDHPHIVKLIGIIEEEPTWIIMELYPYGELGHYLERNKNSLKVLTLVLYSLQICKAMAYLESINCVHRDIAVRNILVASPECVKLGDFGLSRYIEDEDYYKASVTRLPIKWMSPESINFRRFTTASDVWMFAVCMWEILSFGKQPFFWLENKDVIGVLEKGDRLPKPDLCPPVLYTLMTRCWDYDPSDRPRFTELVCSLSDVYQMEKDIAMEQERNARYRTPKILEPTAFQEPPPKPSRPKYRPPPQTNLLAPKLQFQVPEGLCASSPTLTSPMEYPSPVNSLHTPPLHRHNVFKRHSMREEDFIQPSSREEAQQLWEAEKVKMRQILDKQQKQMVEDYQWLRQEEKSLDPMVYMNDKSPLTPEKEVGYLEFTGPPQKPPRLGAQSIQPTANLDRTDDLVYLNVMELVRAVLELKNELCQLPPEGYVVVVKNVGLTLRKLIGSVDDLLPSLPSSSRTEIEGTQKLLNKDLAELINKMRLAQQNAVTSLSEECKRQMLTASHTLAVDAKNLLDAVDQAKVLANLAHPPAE
Excerpt: as §2

IKK-epsilon = molecular target: T30, IKK-epsilon (Homo sapiens, UniProt Q14164); experiment: KINOMEscan at 1 μM, IKK-epsilon; type: binding; conditions: 1000 nM, read-out: Percent Control
T30 construct: purchased Eurofins DiscoverX KINOMEscan
T30 sequence (Q14164 whole entry): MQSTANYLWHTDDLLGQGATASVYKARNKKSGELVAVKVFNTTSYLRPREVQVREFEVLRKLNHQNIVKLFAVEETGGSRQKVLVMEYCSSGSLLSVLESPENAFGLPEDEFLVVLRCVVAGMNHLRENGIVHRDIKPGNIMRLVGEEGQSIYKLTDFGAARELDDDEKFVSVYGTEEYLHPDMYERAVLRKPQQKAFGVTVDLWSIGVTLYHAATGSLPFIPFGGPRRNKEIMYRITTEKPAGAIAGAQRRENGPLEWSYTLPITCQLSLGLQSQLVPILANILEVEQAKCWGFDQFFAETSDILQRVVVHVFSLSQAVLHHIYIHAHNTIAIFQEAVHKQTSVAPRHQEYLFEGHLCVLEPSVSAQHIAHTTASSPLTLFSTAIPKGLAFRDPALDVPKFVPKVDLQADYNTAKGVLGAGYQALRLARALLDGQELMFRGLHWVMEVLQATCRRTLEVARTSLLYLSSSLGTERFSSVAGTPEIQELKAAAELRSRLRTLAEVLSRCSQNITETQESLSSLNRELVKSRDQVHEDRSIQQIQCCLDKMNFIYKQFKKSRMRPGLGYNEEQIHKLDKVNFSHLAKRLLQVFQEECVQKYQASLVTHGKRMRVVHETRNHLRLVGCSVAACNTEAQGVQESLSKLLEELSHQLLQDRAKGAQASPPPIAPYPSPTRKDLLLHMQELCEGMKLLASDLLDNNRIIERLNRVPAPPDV
Excerpt: as §2

DCAMKL1 = molecular target: T31, DCAMKL1 (Homo sapiens, UniProt O15075); experiment: KINOMEscan at 1 μM, DCAMKL1; type: binding; conditions: 1000 nM, read-out: Percent Control
T31 construct: purchased Eurofins DiscoverX KINOMEscan
Excerpt: as §2

Q: What does the source list for `Cc1cccc(-c2cnc3occ(-c4ccc(C(=O)O)c(C5CCCC5)c4)c3c2)c1` [SGC-CAMKK2-1 (YL-36)]?
A: remaining binding at 1 µM (WNK2): 67%; remaining binding at 1 µM (CSNK1A1): 78%; remaining binding at 1 µM (PAK1): 82%; Percent Control (EGFR(L747-T751del,Sins)): 85%; remaining binding at 1 µM (NEK1): 85%; remaining binding at 1 µM (CHEK2): 92%; remaining binding at 1 µM (DMPK): 92%; remaining binding at 1 µM (WNK3): 97%; remaining binding at 1 µM (TSSK3): 98%; remaining binding at 1 µM (AMPK-alpha2): 100%; remaining binding at 1 µM (CDK5): 100%; remaining binding at 1 µM (IGF1R): 100%; remaining binding at 1 µM (MEK6): 100%; remaining binding at 1 µM (MLK1): 100%; remaining binding at 1 µM (MYLK2 [1]): 100%; remaining binding at 1 µM (NIM1): 100%; remaining binding at 1 µM [2]: 100%; remaining binding at 1 µM (ULK3): 100%; remaining binding at 1 µM (ZAK): 100%

Q: Which results are given for `O=C(O)c1ccc(-c2coc3ncc(-c4ccccc4)cc23)cc1Cl` [SGC-CAMKK2-1N (UNC-YL-83)]?
A: remaining binding at 1 µM (ALK(C1156Y)): 0%; remaining binding at 1 µM (GRK2): 55%; remaining binding at 1 µM (SRPK2): 76%; remaining binding at 1 µM (MAP4K2): 77%; remaining binding at 1 µM (MYLK2 [3]): 82%; remaining binding at 1 µM (CDK4-cyclinD3): 87%; remaining binding at 1 µM (STK35): 88%; remaining binding at 1 µM (KIT): 89%; remaining binding at 1 µM (RET(V804L)): 90%; remaining binding at 1 µM (SNARK): 90%; remaining binding at 1 µM (DRAK1): 93%; remaining binding at 1 µM (PYK2): 96%; remaining binding at 1 µM (IKK-epsilon): 98%; remaining binding at 1 µM (DCAMKL1): 100%
